The target of this test is T1, PRMT5:MEP50 protein complex (Homo sapiens, UniProt O14744).
T1 construct: FLAG (N); made in house; host or cells: Hi5 insect cells
The test is described as follows: In vitro assay 1: PRMT5 SPA assay ("EAA"). It is filed as biochemical. The note with it: scintillation proximity assay, methylation of biotinylated H4(1-24) peptide, 3H-SAM, 60 min at 22° C. The text has this: In Vitro Assay 1: PRMT5 SPA Assay (“EAA”)
PRMT5 inhibitory activities of the compounds described in the present invention were quantified using a scintillation proximity assay (SPA) which measures methylation by the enzyme of a synthetic, biotinylated peptide corresponding to the N-terminal sequence of Histone H4 (a.a. 1-24). The peptide of sequence […]-K(Btn)-amide is commercially available (e.g. from Biosyntan) and will be herein referred to as H4(1-24). The PRMT5:MEP50 protein complex used in the assay was produced in house following standard protocols. Briefly, full length PRMT5 and MEP50 constructs respectively tagged with N-terminal FLAG and 6× His sequences were co-expressed in Hi5 insect cells, and the recombinant protein complex was purified by FLAG affinity and size exclusion chromatography.
In a typical assay 11 different concentrations of each compound (0.1 nM, 0.33 nM, 1.1 nM, 3.8 nM, 13 nM, 44 nM, 0.15 μM, 0.51 μM, 1.7 μM, 5.9 μM and 20 μM) were tested in duplicate within the same microtiter plate. To this end, 100-fold concentrated compound solutions (in DMSO) were previously prepared by serial dilution (1:3.4) of 2 mM stocks in a clear low volume 384-well source microtiter plate (Greiner Bio-One), from which 50 nl of compounds were transferred into a white low volume test microtiter plate from the same supplier. Subsequently, 2.5 μL PRMT5 in aqueous assay buffer [20 mM Bicine pH 8.0 (Alfa Aesar), 7.5 mM Tris(2-carboxyethyl) phosphine hydrochloride (TCEP, Sigma), 0.1% (w/v) bovine gamma globuline (BGG, Sigma), 0.002% (v/v) Tween-20 (Sigma)] were added to the compounds in the test plate to a final enzyme concentration of—typically—7.5 nM (this parameter was adjusted depending on the activity of the enzyme lot in order to be within the linear dynamic range of the assay). The samples were then incubated for 15 min at 22° C. to allow pre-equilibration of the putative enzyme-inhibitor complexes before the start of the methylation reaction, which was initiated by the addition of 2.5 μL 2-fold concentrated solution (in assay buffer) of “cold” S-Adenosyl-L-Methionine (SAM, Sigma, final concentration: 0.5 μM), tritiated 3H-SAM (Perkin Elmer, final concentration: 0.5 μM) and H4(1-24) peptide substrate (final concentration: 0.06 μM). The resulting mixture (5 μL final volume) was shortly centrifuged (2 min., 1500 rpm) and incubated at 22° C. during 60 min. Thereupon the reaction was stopped by adding 3 μL of Streptavidin PS SPA imaging beads (Perkin Elmer, final concentration of 0.375 μg/μL) and “cold” SAM (AK Scientific, 250 μM final concentration) for non-specific binding reduction. Plates containing the stopped reaction were sealed with transparent adhesive foil (Perkin Elmer), centrifuged (2 min., 1500 rpm), and further incubated either 1 h at 22° C. or overnight at 4° C. in order to allow the SPA signals to develop. Subsequently, the amount of product was evaluated by measuring the energy transfer from the β-particles emitted by the 3H-labeled substrate to the Europium scintillator co-polymerized in the polystyrene matrix of the PS imaging beads, using the standard settings for this purpose of a Viewlux (Perkin-Elmer) CCD plate imaging device (emission filter 613/55 (IFP).
The resulting scintillation counts were taken as indicator for the amount of methylated peptide per well. The data were normalised using two sets of control wells (typically 16 each) for high—(=enzyme reaction with DMSO instead of test compound=0%=minimum inhibition) and low—(=all assay components without enzyme=100%=maximum inhibition) PRMT5 activity. IC50 values were calculated by fitting the normalized inhibition data to a 4-parameter logistic equation using the “Screener” analysis software from Genedata.

Each structure is given as a SMILES string.

T1 sequence (O14744 whole entry, species assumed): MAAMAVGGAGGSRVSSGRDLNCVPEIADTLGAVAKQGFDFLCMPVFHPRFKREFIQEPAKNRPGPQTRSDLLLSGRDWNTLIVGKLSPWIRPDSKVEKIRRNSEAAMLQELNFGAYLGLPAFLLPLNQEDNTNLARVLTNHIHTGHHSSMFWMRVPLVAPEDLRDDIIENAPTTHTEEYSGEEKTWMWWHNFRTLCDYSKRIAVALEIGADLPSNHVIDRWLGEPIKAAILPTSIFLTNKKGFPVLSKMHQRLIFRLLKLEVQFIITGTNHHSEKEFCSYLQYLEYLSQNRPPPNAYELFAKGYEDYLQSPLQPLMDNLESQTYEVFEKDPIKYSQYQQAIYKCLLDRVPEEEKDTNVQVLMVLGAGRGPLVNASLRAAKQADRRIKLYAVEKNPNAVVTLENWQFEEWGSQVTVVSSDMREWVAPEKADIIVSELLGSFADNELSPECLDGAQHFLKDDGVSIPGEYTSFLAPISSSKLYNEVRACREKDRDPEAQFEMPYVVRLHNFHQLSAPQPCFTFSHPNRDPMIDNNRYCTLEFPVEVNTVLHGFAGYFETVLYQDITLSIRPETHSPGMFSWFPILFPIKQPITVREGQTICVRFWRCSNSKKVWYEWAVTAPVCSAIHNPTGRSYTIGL
T1 sequence (Q9BQA1 whole entry partner, species assumed): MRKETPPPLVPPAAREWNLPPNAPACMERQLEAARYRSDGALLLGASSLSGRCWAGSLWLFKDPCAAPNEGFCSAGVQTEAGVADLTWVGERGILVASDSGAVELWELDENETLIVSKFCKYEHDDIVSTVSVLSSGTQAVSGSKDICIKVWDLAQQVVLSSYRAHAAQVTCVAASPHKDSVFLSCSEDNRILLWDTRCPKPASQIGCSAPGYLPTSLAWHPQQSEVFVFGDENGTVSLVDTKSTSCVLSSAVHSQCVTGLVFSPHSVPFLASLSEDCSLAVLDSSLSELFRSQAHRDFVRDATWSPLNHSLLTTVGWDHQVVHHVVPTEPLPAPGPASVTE

`CC(C)(C)c1cc(NC(=O)c2csc(NCC3CCCO3)n2)no1` (racemic) [Example 49, (rac)-N-(5-tert-Butyl-1,2-oxazol-3-yl)-2-{[-tetrahydrofuran-2-ylmethyl]amino}-1,3-thiazole-4-carboxamide] showed an IC50 of 5.68 µM. In turn, `CC(C)(C)c1cc(NC(=O)c2csc(Nc3ccc(F)cn3)n2)no1` [Example 6, N-(5-tert-Butyl-1,2-oxazol-3-yl)-2-[(5-fluoropyridin-2-yl)amino]-1,3-thiazole-4-carboxamide] displayed an IC50 of 0.118 µM.

As for `COc1ccc2[nH]c(NC(=O)c3csc(Nc4ccc(Cl)cc4)n3)nc2c1` [Example 9, 2-[(4-Chlorophenyl)amino]-N-(5-methoxy-1H-benzimidazol-2-yl)-1,3-thiazole-4-carboxamide], half-maximal inhibition (IC50) required 0.239 µM. As to `O=C(Nc1nccs1)c1csc(Nc2ccc(Cl)cc2)n1` [Example 11, 2-[(4-Chlorophenyl)amino]-N-(1,3-thiazol-2-yl)-1,3-thiazole-4-carboxamide], the IC50 stood at 0.28 µM. The result for `CC(C)(C)c1cc(NC(=O)c2csc(Nc3ccccc3)n2)n[nH]1` [Example 16, N-(5-tert-Butyl-1H-pyrazol-3-yl)-2-(phenylamino)-1,3-thiazole-4-carboxamide] reads 0.438 µM; that for `CC(C)(C)c1cc(NC(=O)c2csc(Nc3ccc(C#N)cc3)n2)no1` [Example 24, N-(5-tert-Butyl-1,2-oxazol-3-yl)-2-[(4-cyanophenyl)amino]-1,3-thiazole-4-carboxamide], 2.54 µM. `CC(C)(C)c1cc(NC(=O)c2csc(Nc3ccccc3F)n2)no1` [Example 25, N-(5-tert-Butyl-1,2-oxazol-3-yl)-2-[(2-fluorophenyl)amino]-1,3-thiazole-4-carboxamide] returned an IC50 of 2.49 µM. `O=C(NCCCN1CCc2ccccc2C1)c1csc(Nc2ccc(Cl)cc2)n1` [Example 26, 2-[(4-Chlorophenyl)amino]-N-[3-(3,4-dihydroisoquinolin-2(1H)-yl)propyl]-1,3-thiazole-4-carboxamide] returned a 50% inhibitory concentration (IC50) of 7.85 µM. `O=C(c1csc(Nc2ccc(Cl)cc2)n1)N1CCC(N2CCc3ccccc3C2)CC1` [Example 27, {2-[(4-Chlorophenyl)amino]-1,3-thiazol-4-yl}{4-[3,4-dihydroisoquinolin-2(1H)-yl]piperidin-1-yl}methanone] had an IC50 of 7.61 µM.

With `O=C(Nc1ccn(CCO)n1)c1csc(Nc2ccccc2)n1` [Example 28, N-[1-(2-Hydroxyethyl)-1H-pyrazol-3-yl]-2-(phenylamino)-1,3-thiazole-4-carboxamide], half-maximal inhibition (IC50) was put at 9.1 µM.

For the molecule `Cc1c(NC(=O)c2csc(Nc3ccc(Cl)cc3)n2)noc1C(C)(C)C` [Example 29, N-(5-tert-Butyl-4-methyl-1,2-oxazol-3-yl)-2-[(4-chlorophenyl)amino]-1,3-thiazole-4-carboxamide], it took 9.68 µM to reach half-maximal inhibition (IC50). `N#Cc1c[nH]nc1NC(=O)c1csc(Nc2ccccc2)n1` [Example 30, N-(4-Cyano-1H-pyrazol-3-yl)-2-(phenylamino)-1,3-thiazole-4-carboxamide] registered a half-inhibitory concentration (IC50) of 12 µM. As to `O=C(Nc1cnn(C2COC2)c1)c1csc(Nc2ccc(Cl)cc2)n1` [Example 31, 2-[(4-Chlorophenyl)amino]-N-[1-(oxetan-3-yl)-1H-pyrazol-4-yl]-1,3-thiazole-4-carboxamide], the IC50 worked out at 15.1 µM. `CC(C)(C)c1cc(NC(=O)c2csc(NC3CC3)n2)no1` [Example 32, N-(5-tert-Butyl-1,2-oxazol-3-yl)-2-(cyclopropylamino)-1,3-thiazole-4-carboxamide] displayed an IC50 of 14.7 µM.

As to `Cc1ccc(Nc2nc(C(=O)Nc3cc(C(C)(C)C)on3)cs2)nc1` [Example 34, N-(5-tert-Butyl-1,2-oxazol-3-yl)-2-[(5-methylpyridin-2-yl)amino]-1,3-thiazole-4-carboxamide], it took 0.0418 µM to reach half-maximal inhibition (IC50). Turning to `CC(C)(C)c1cc(NC(=O)c2csc(Nc3ccc(Cl)cn3)n2)no1` [Example 35, N-(5-tert-Butyl-1,2-oxazol-3-yl)-2-[(5-chloropyridin-2-yl)amino]-1,3-thiazole-4-carboxamide], the concentration for half-maximal inhibition (IC50) is 0.0496 µM. On to `CC(C)(C)c1cc(NC(=O)c2csc(Nc3cc(Cl)ccn3)n2)no1` [Example 36, N-(5-tert-Butyl-1,2-oxazol-3-yl)-2-[(4-chloropyridin-2-yl)amino]-1,3-thiazole-4-carboxamide], for which half-maximal inhibition (IC50) required 0.105 µM. Turning to `CC(C)(C)c1cc(NC(=O)c2csc(NCCc3ccccc3)n2)no1` [Example 37, N-(5-tert-Butyl-1,2-oxazol-3-yl)-2-[(2-phenylethyl)amino]-1,3-thiazole-4-carboxamide], the midpoint of inhibition, the IC50, lay at 0.119 µM. Molecule `CC(C)(C)c1cc(NC(=O)c2csc(Nc3ccc4c(c3)CCC4)n2)no1` [Example 38, N-(5-tert-Butyl-1,2-oxazol-3-yl)-2-(2,3-dihydro-1H-inden-5-ylamino)-1,3-thiazole-4-carboxamide] had an IC50 of 0.16 µM. With `CC(C)(C)c1cc(NC(=O)c2csc(Nc3ccc(Cl)c(F)c3)n2)no1` [Example 39, N-(5-tert-Butyl-1,2-oxazol-3-yl)-2-[(4-chloro-3-fluorophenyl)amino]-1,3-thiazole-4-carboxamide] the figure was 0.183 µM; with `CC(C)(C)c1cc(NC(=O)c2csc(Nc3ccc4ccoc4c3)n2)no1` [Example 40, 2-(1-Benzofuran-6-ylamino)-N-(5-tert-butyl-1,2-oxazol-3-yl)-1,3-thiazole-4-carboxamide], 0.35 µM; with `Cc1ccc(Nc2nc(C(=O)Nc3cc(C(C)(C)C)on3)cs2)c(F)c1` [Example 41, N-(5-tert-Butyl-1,2-oxazol-3-yl)-2-[(2-fluoro-4-methylphenyl)amino]-1,3-thiazole-4-carboxamide], 0.426 µM. Regarding `CC(C)(C)c1cc(NC(=O)c2csc(NCc3cccc(F)c3)n2)no1` [Example 42, N-(5-tert-Butyl-1,2-oxazol-3-yl)-2-[(3-fluorobenzyl)amino]-1,3-thiazole-4-carboxamide], the IC50 turned out to be 0.508 µM. Take `Cc1cccc(Nc2nc(C(=O)Nc3cc(C(C)(C)C)on3)cs2)c1` [Example 43, N-(5-tert-Butyl-1,2-oxazol-3-yl)-2-[(3-methylphenyl)amino]-1,3-thiazole-4-carboxamide]: the IC50 is 0.512 µM. Turning to `CC(C)(C)c1cc(NC(=O)c2csc(NCc3ccco3)n2)no1` [Example 44, N-(5-tert-Butyl-1,2-oxazol-3-yl)-2-[(furan-2-ylmethyl)amino]-1,3-thiazole-4-carboxamide], half-maximal inhibition (IC50) was put at 0.606 µM. Regarding `CC(C)(C)c1cc(NC(=O)c2csc(Nc3ccc(F)c(F)c3)n2)no1` [Example 45, N-(5-tert-Butyl-1,2-oxazol-3-yl)-2-[(3,4-difluorophenyl)amino]-1,3-thiazole-4-carboxamide], the midpoint of inhibition, the IC50, lay at 0.815 µM. For `CC(C)(C)c1cc(NC(=O)c2csc(Nc3ccc(F)c(Cl)c3)n2)no1` [Example 46, N-(5-tert-Butyl-1,2-oxazol-3-yl)-2-[(3-chloro-4-fluorophenyl)amino]-1,3-thiazole-4-carboxamide], the IC50 was determined as 1.2 µM. As for `CC(C)(C)c1cc(NC(=O)c2csc(Nc3ccccc3C(=O)Nc3cc4ccccc4cn3)n2)no1` [Example 47, N-(5-tert-Butyl-1,2-oxazol-3-yl)-2-{[2-(isoquinolin-3-ylcarbamoyl)phenyl]amino}-1,3-thiazole-4-carboxamide], the IC50 came to 1.3 µM.

The record behind these values is patent publication US20200123147A1, “THIAZOLE COMPOUNDS USEFUL AS PRMT5 INHIBITORS” (Bayer Aktiengesellschaft, priority 2017, published 2020).
